This is an account of results in patent US10258639B2, “Methods for treating insulin resistance and for sensitizing patients to GLP1 agonist therapy” (Research Development Foundation, priority 2014, dated 2019).

In series [1] the test system is CREB (Ser133) / CRTC2 in INS1 insulinoma cells. Put plainly: Immunoblot of CREB phosphorylation and CRTC2 dephosphorylation in INS1 insulinoma cells. The format is cell-based, rat. To be noted: within 30 minutes, FSK 10 μM, KCl 40 mM. How it is done:
(§1) INS-1 insulinoma cells were cultured in RPMI (corning cellgro) containing 10% fetal bovine serum (Gemini Bio Products), 100 μg/mL penicillin-streptomycin and 1 mM sodium pyruvate (corning cellgro). MIN6 cells were grown in DMEM (corning cellgro) with 10% FBS, 100 μg/mL penicillin-streptomycin and 70 uM beta-mercaptoethanol. For chronic glucose experiments, cells were maintained under low (2.8 mM) or high (20 mM) glucose for 3 days. Exendin-4 (10 nM), Forskolin (10 μM), KCl (40 mM), DMOG (1 mM) and rapamycin (50 nM) were added to cells as indicated. Cellular cAMP levels were measured using an ELISA kit (Cayman Chemical Company) according to manufacturer's instructions.
Total protein from cultured cells or primary islets was extracted in a Tris-HCl buffer containing 0.5% NP40, protease and phosphatase inhibitors. Proteins were quantified using Bradford reagent and separated using SDS-PAGE. For cellular fractionation, cells were resuspended in hypotonic lysis buffer (40 mM TrisHCl PH 7.4, 10 mM NaCl, 1 mM EDTA with DTT and protease inhibitors). Cells were lysed using a dounce homogenizer and centrifuged. Cytosolic supernatants were collected. Nuclear pellets were washed 3 times and resuspended in nuclear extraction buffer (40 mM TrisHCl PH 7.4, 420 mM NaCl, 10% Glycerol, 1 mM EDTA). Samples were sonicated and centrifuged. Nuclear supernatants were collected. […]
A general note: A western blot detects proteins with antibodies after separation by electrophoresis.

The target of another series is human GLP1 receptor (Homo sapiens, UniProt P43220). To be noted: greater affinity vs native GLP1; cited from earlier work.
For series [2] the following is noted: mildly hyperglycaemic patients with Type 2 diabetes on metformin (Ratner et al. 2010); cited from earlier work.
The conditions of series [3]: Matthews et al. 2008; cited from earlier work.
For another series, the system named is PKIB in INS1 cells. The series is described as follows: PKIB expression (mRNA/protein) in INS1 cells. To be noted: DMOG 1 mM. It is filed as cell-based, rat. The protocol: Moreover, RNAi-mediated depletion of HIF-1α also disrupted PKIB induction, whereas HIF-1α over-expression potentiated it (FIG. 5f, FIGS. 10e and 10f).
as §1
Total RNAs from cells or primary islets were extracted using Trizol and cDNA was generated using the Transcriptor First Strand cDNA Synthesis kit (Roche Applied Science). cDNAs were quantified on a lightcycler 480 instrument (Roche Applied Science). […] Libraries were quantitated by Qubit (Invitrogen), and run on a MiSeq instrument with paired-end 75 bp reads using v3 chemistry (Illumina) Data were analyzed by tophat2 and cuffdiff against the mouse mm10 genome build. […]

human GLP1 receptor, sequence (P43220 24-463): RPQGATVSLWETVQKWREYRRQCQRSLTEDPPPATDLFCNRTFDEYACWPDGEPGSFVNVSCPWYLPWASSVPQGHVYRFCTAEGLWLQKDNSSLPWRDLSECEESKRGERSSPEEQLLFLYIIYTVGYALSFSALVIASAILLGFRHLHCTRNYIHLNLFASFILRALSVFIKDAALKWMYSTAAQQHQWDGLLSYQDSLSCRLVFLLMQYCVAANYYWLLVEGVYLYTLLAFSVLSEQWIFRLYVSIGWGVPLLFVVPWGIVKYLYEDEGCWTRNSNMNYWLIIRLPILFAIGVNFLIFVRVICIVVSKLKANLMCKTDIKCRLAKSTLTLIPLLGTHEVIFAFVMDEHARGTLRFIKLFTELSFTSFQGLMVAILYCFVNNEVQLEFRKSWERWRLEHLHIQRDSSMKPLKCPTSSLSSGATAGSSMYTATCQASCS

Consider `[Cl-].[K+]` [KCl], for which the “phosphorylation of CREB at Ser133” value in series [1] is “stimulated CREB phosphorylation to a lesser extent”.
Take “Lixisenatide: exendin-4-based GLP1 receptor agonist”: the “affinity for the human GLP1 receptor compared with native GLP1” value with human GLP1 receptor is “approximately 4 fold”. Also, the glycaemic control result in series [2] is “significantly improve glycaemic control”.
For the compound “Albiglutide: recombinant human serum albumin (HSA)-GLP1 hybrid protein; dipeptidyl peptidase-4-resistant glucagon-like peptide-1 dimer fused to human albumin”, the half-life after administration result in series [3] is “four to seven”.
Take `COC(=O)CNC(=O)C(=O)OC` [DMOG]: the PKIB expression result with PKIB in INS1 cells was “upregulated PKIB expression”.
